Reference: paper PMC12040169 (PLOS Biology, 2025)

Test: in vitro
Conditions: human, hela cells, % viability

SMILES	viability at 28.5 h, 10 µM [%]
COc1ccc(Cn2c(=O)n(S(=O)(=O)c3ccc(C)cc3)c3ccccc32)cc1 [CBK106550]	95.1
COc1ccc(Cn2c(=O)n(C(=O)CCc3cccc(OC)c3)c3ccccc32)cc1 [CBK106557]	113
COc1ccc(Cn2c(=O)n(S(=O)(=O)c3cccc(-c4nnc(C)o4)c3)c3ccccc32)cc1 [CBK106558]	89.8
CC(C)S(=O)(=O)n1c(=O)n(CC(=O)c2csc3ccccc23)c2ccccc21 [CBK106559]	99.8
COc1cccc(CCC(=O)n2ccn(CCCOc3ccccc3)c2=O)c1 [CBK106565]	104
Cc1ccccc1-n1ccn(S(=O)(=O)c2ccccc2)c1=O [CBK106567]	86.7
Cc1ccccc1-n1ccn(C(=O)CCC2CCCC2)c1=O [CBK106571]	106
Cc1ccccc1-n1ccn(C(=O)CCCOc2ccc(Cl)cc2)c1=O [CBK106573]	88.5
CS(=O)(=O)c1ccccc1C(=O)n1ccn(-c2cccc(C(F)(F)F)c2)c1=O [CBK106584]	91.1
O=c1n(-c2cccc(C(F)(F)F)c2)ccn1S(=O)(=O)c1ccc(N2CCOCC2)nc1 [CBK106590]	104
Cc1nnc(-c2cccc(S(=O)(=O)n3ccn(-c4cccc(C(F)(F)F)c4)c3=O)c2)o1 [CBK106592]	91.9
Cc1nn(C)c(C)c1S(=O)(=O)n1ccn(-c2cccc(C(F)(F)F)c2)c1=O [CBK106593]	98.7
COC(=O)c1ccc(S(=O)(=O)n2ccn(-c3cccc(C(F)(F)F)c3)c2=O)n1C [CBK106594]	90.1
COc1ccc(-n2ccn(C(=O)CCC3CCCC3)c2=O)cc1 [CBK106595]	90.4
COc1cccc(CCC(=O)n2ccn(-c3ccc(N(C)C)cc3)c2=O)c1 [CBK106609]	99
O=C(CCC1CCCC1)n1ccn(CCc2cccs2)c1=O [CBK106611]	97.6
COC(=O)CCCC(=O)n1ccn(CCc2cccs2)c1=O [CBK106612]	92
O=c1n(C(c2ccccc2)c2ccccc2)ccn1S(=O)(=O)c1cccc(Cl)c1 [CBK106615]	91.5
O=C(CCC1CCCC1)n1ccn(C(c2ccccc2)c2ccccc2)c1=O [CBK106619]	103
COc1ccc(S(=O)(=O)n2ccn(C(c3ccccc3)c3ccccc3)c2=O)cc1OC [CBK106621]	89.1
O=C(CCC1CCCC1)n1ccn(-c2ccc3c(c2)OCO3)c1=O [CBK106631]	101
CCCc1ccc(S(=O)(=O)n2ccn(-c3ccc4c(c3)OCO4)c2=O)cc1 [CBK106634]	94.6
CS(=O)(=O)c1ccccc1C(=O)n1ccn(-c2ccc(Oc3ccccc3)cc2)c1=O [CBK106647]	80.8

SMILES	viability at 28.5 h, 10 µM [%]
c1ccc(-c2nccnc2OCCc2cccs2)cc1 [CBK106673]	103
CC(=O)Nc1ccc(CCOc2nccnc2-c2ccccc2)cc1 [CBK106683]	96.3
c1ccc(COc2nccnc2-c2ccccc2)cc1 [CBK106686]	92.2
O=C1CCC(=O)N1CCOc1nccnc1-c1ccc2c(c1)OCO2 [CBK106698]	92.3
c1cnc(-c2ccc3c(c2)OCO3)c(OC2CCCCC2)n1 [CBK106706]	92.4
CC(C)CCOc1nccnc1-c1ccc2c(c1)OCO2 [CBK106711]	104
COc1ncc(-c2nccnc2OC)c(OC)n1 [CBK106744]	94.2
COc1ncc(-c2nccnc2OCCn2cnc3c2c(=O)n(C)c(=O)n3C)c(OC)n1 [CBK106746]	87.3
COc1ncc(-c2nccnc2Oc2cccc(NC(C)=O)c2)c(OC)n1 [CBK106747]	89.6
COc1ncc(-c2nccnc2OCCOc2ccccc2)c(OC)n1 [CBK106752]	91.1
COc1ncc(-c2nccnc2OCC2COc3ccccc3O2)c(OC)n1 (stereo not shown) [CBK106754]	102
CCCCOc1nccnc1-c1cnc(OC)nc1OC [CBK106756]	98.8
COc1cccc(Oc2nccnc2-c2ccsc2)c1 [CBK106762]	92.1
c1cnc(-c2ccsc2)c(OC2CCCCC2)n1 [CBK106764]	97.6
O=C1NCCN1CCOc1nccnc1-c1ccsc1 [CBK106766]	93.4
c1csc(COc2nccnc2-c2ccsc2)c1 [CBK106770]	100
c1ccn(CCOc2nccnc2-c2ccsc2)c1 [CBK106772]	94.4
COc1ccc(CCOc2nccnc2-c2ccsc2)cc1 [CBK106775]	72
COc1nccnc1-c1cc2ccccc2s1 [CBK106781]	87.7
c1csc(COc2nccnc2-c2cc3ccccc3s2)c1 [CBK106786]	99.5
CSc1ccc(-c2nccnc2OC(c2ccccc2)c2ccccc2)cc1 [CBK106797]	90.2
CSc1ccc(-c2nccnc2OCCC(C)C)cc1 [CBK106802]	113
COC(=O)COc1nccnc1-c1ccc(SC)cc1 [CBK106806]	107

SMILES	viability at 28.5 h, 10 µM [%]
COc1ccccc1-c1nccnc1OCCc1c[nH]c2ccccc12 [CBK106807]	87.7
COc1ccccc1-c1nccnc1OC(c1ccccc1)c1ccccc1 [CBK106813]	93.8
COc1ccccc1-c1nccnc1OCCc1ccc(NC(C)=O)cc1 [CBK106815]	115
FC(F)(F)Oc1ccc(-c2nccnc2OCC2COc3ccccc3O2)cc1 (stereo not shown) [CBK106845]	97.7
COC(=O)COc1nccnc1-c1ccc(OC(F)(F)F)cc1 [CBK106849]	90.4
COc1nccnc1-c1ccc(C)c(C)c1 [CBK106853]	88.7
Cc1ccc(-c2nccnc2OCc2ccccc2)cc1C [CBK106861]	90.8
Cc1ccc(-c2nccnc2OCc2ccco2)cc1C [CBK106863]	90.2
Cc1ccc(-c2nccnc2OCCOc2ccccc2)cc1C [CBK106865]	90.8
CCCCOc1nccnc1-c1ccc(C)c(C)c1 [CBK106870]	95.1
COC(=O)COc1nccnc1-c1ccc(C)c(C)c1 [CBK106871]	83.3
C(=C\c1nccnc1OCCc1cccs1)/c1ccccc1 [CBK106873]	101
COc1nccnc1/C=C/c1ccccc1 [CBK106876]	115
COc1cccc(Oc2nccnc2/C=C/c2ccccc2)c1 [CBK106877]	107
C(=C\c1nccnc1OC(c1ccccc1)c1ccccc1)/c1ccccc1 [CBK106878]	99.1
C(=C\c1nccnc1OCCOc1ccccc1)/c1ccccc1 [CBK106885]	91.6
CC(C)N(CCOc1nccnc1/C=C/c1ccccc1)C(C)C [CBK106889]	96
CCCC/C=C\c1nccnc1OCCn1cccc1 [CBK106891]	104
O=C1CCCN1CCOc1nccnc1-c1ccc(F)cc1 [CBK106895]	98.7
Fc1ccc(-c2nccnc2OCc2ccc3c(c2)OCO3)cc1 [CBK106896]	93.3
O=C1NCCN1CCOc1nccnc1-c1ccc(F)cc1 [CBK106898]	97.8
